Test results from ChEMBL document CHEMBL3044824, “Synthesis and Acaricidal Activity of 1-Arylmethyl-2-arylimidazolidines” (2001).

What was measured:
Type in all cases: functional
Tetranychus urticae [1] = experiment: Acaricidal activity against Tetranychus urticae (two-spotted spider mite) in second leaf stage of Phaseolus vulgaris var. Serena assessed as mortality at 500 ppm after 7 days
Tetranychus urticae [2] = experiment: Acaricidal activity against Tetranychus urticae (two-spotted spider mite) in second leaf stage of Phaseolus vulgaris var. Serena assessed as mortality at 200 ppm after 7 days
Tetranychus urticae [3] = experiment: Acaricidal activity against Tetranychus urticae (two-spotted spider mite) in second leaf stage of Phaseolus vulgaris var. Serena assessed as mortality at 100 ppm after 7 days
Tetranychus urticae [4] = experiment: Acaricidal activity against Tetranychus urticae (two-spotted spider mite) in second leaf stage of Phaseolus vulgaris var. Serena assessed as mortality at 50 ppm after 7 days

| SMILES | Activity (Tetranychus urticae [1]) [%] | Activity (Tetranychus urticae [2]) [%] | Activity (Tetranychus urticae [3]) [%] | Activity (Tetranychus urticae [4]) [%] |
| --- | --- | --- | --- | --- |
| c1ccc(CC2=NCCN2Cc2ccccc2)cc1 | <24 |  |  |  |
| c1ccc(C2=NCCN2Cc2ccncc2)cc1 | >80 | 50 | >80 |  |
| Clc1ccc(CC2=NCCN2Cc2ccc(Cl)cc2)cc1 | <24 |  |  |  |
| Clc1ccccc1C1=NCCN1Cc1ccccc1 | >80 | 50 | 25 |  |
| CC(C)(C)c1ccc(CN2CCN=C2c2ccccc2)cc1 | >80 | 50 | 25 |  |
| Clc1ccc(CN2CCN=C2c2cccnc2)cc1 | >80 | >80 | 50 | 25 |
| Clc1ccccc1CN1CCN=C1c1ccccc1 | >80 | 50 | 25 |  |
| COc1ccc(CN2CCN=C2c2ccccc2)cc1 | <24 |  |  |  |
| Clc1cccc(C2=NCCN2Cc2ccccc2)c1 | <24 |  |  |  |
| c1ccc(C2=NCCN2Cc2ccc(-c3ccccc3)cc2)cc1 | >80 | >80 | 50 | 25 |
| Clc1cccc(Cl)c1CN1CCN=C1c1ccccc1 | >80 | 25 |  |  |
| Clc1ccc(CN2CCN=C2c2ccccc2)cc1 | >80 | >80 | >80 | >80 |
| Clc1ccc(CN2CCN=C2c2ccccc2)cn1 | 50 | <24 |  |  |
| CC1(C)CN=C(c2ccccc2)N(Cc2ccc(Cl)cc2)C1 | >80 | 50 | 25 |  |
| c1ccc(CN2CCN=C2c2ccccc2)cc1 | 50 | 25 |  |  |
| Clc1ccc(CN2CCN=C2c2cccnc2)cn1 | 50 | 25 |  |  |
| Clc1ccc(CN2CCN=C2c2ccccc2)c(Cl)c1 | 25 |  |  |  |
| Clc1cccc(CN2CCN=C2c2ccccc2)c1 | >80 | 25 |  |  |
| Fc1cccc(F)c1C1=NCCN1Cc1ccc(Cl)cc1 | >80 | >80 | >80 | 25 |
| Fc1cccc(F)c1C1=NCCN1Cc1ccccc1 | >80 | >80 | >80 | >80 |
| Clc1ccc(CN2CCCN=C2c2ccccc2)cc1 | 50 | 25 |  |  |
| c1ccc(CCN2CCN=C2c2ccccc2)cc1 | 25 |  |  |  |
| Clc1ccc(C2=NCCN2Cc2ccccc2)cc1 | <24 |  |  |  |
| Cc1ccc(CN2CCN=C2c2ccccc2)cc1 | <24 |  |  |  |
| c1ccc(C2=NCCN2c2ccccc2)cc1 | <24 |  |  |  |
| c1ccc(C2=NCCN2Cc2cccnc2)cc1 | >80 | 50 | 25 |  |
| c1cncc(CN2CCN=C2c2cccnc2)c1 | >80 | 50 | 25 |  |
| c1ccc(CN2CCN=C2c2cccnc2)cc1 | 25 |  |  |  |
